Values quoted from earlier work, collected in patent publication US20050085455A1, “Photodynamic therapy for local adipocyte reduction” (Light Sciences Corporation, priority 2003, published 2005).

Conditions: systemically administered sensitizer in clinical use; for duration of skin sensitization: result in words

| Molecule | duration of skin sensitization | duration of photosensitivity (skin photosensitivity) |
| --- | --- | --- |
| CCOC(=O)C1=Cc2c3nc(cc4nc(cc5[n-]c(cc6[n-]c2c(C)c6CC)c(C)c5CC)C(C)=C4CC)[C@@H](C)[C@]13CC.[Cl-].[Cl-].[Sn] (racemic) [Purlytin] | several weeks |  |
| Oc1cccc(-c2c3nc(c(-c4cccc(O)c4)c4ccc([nH]4)c(-c4cccc(O)c4)c4nc(c(-c5cccc(O)c5)c5ccc2[nH]5)CC4)C=C3)c1 [Foscan] | several weeks |  |
| sodium porfimer [Photophrin] |  | up to 6 weeks |
